For one data set, the target named is T1, human PD-1/PD-L1 binding (Homo sapiens, UniProt Q9NZQ7).
T1 construct: PD-L1-His protein (19 to 238 amino acids) (Abcam #ab167713); purchased Abcam (PD-L1-His); R&D (PD-1-Fc) ab167713; 1086-PD
The data set is described as follows: Inhibition of human PD-1/PD-L1 binding (TR-FRET/HTRF). In short, it runs like this: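 PD-L1-His (aa 19–238, diluted to 10 nM) and PD-1-Fc (aa 25–167, diluted to 20 nM) incubated with compounds (10 μM or 1 μM top, 3-fold, 11 doses) 60 min at room temperature, then anti-6HIS Eu cryptate/anti-human IgG-XL665 added for 3 h RT or overnight 4 °C. HTRF 665/620 nm ratio gave inhibition and IC50.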
For orientation: Time-resolved FRET reads energy transfer from a long-lived donor to a nearby acceptor.

The target of another data set is T2, human PD-L1 protein (Homo sapiens, UniProt Q9NZQ7).
T2 construct: purchased Acro Biosystems PD1-H5229
The data set is described as follows: Thermal shift: melting temperature of PD-L1 protein. The settings on record: read-out: ΔTm (° C.). The format is binding. In short, it runs like this: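 Human PD-L1 at 2 μM final was tested in […], 150 mM NaCl with SYPRO Orange, heated 25→95 °C at 0.03 °C/s in a PCR melt-curve run. Tm was taken per treatment; ΔTm is the shift relative to DMSO vehicle.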

A short description of data set [1]: Pharmacokinetics test in Balb/C mice. The format is in vivo. The settings on record: male, mouse, po, p.o. 5 mg/kg, plasma; for MRT inf: read-out: Average residence time MRT0−∞; for AUC(0-t): read-out: Curve area AUC0−t; for Cmax: read-out: Drug concentration in plasma Cmax; for half-life: read-out: Half life t1/2 (converted); for Tmax: read-out: Peak time tmax. The method, then:
Test Embodiment 6. Pharmacokinetics Test in Balb/C Mice
Taking Balb/C mice as the test animals, the pharmacokinetic behavior in the plasma of mice of the following compound embodiments was studied when orally administered at a dose of 5 mg/kg.
Balb/C Mouse 6/embodiment, male, Shanghai Jisijie Laboratory Animal Co., Ltd., animal production license number (SCXK (Shanghai) 2013-0006 No. 311620400001794).
0.5% HPMC (1% Tween 80), dissolved by sonication, to prepare a clear solution or a homogeneous suspension.
Balb/C mice, male; p.o. after overnight fasting, respectively, at a dose of 5 mg/kg, administered in a volume of 10 mL/kg.
Before and after administration of mice, at 0, 0.5, 1, 2, 4, 6, 8 and 24 hours, 0.1 mL of blood was collected from the orbit, placed in an EDTA-K2 test tube, and centrifuged at 6000 rpm at 4° C. for 6 min to separate the plasma, stored at −80° C.
1) 40 μL of plasma samples were added to 160 μL of acetonitrile for precipitation, mixed and centrifuged at 3500×g for 5 to 20 minutes.
2) 100 μL of the supernatant solution after treatment was taken for LC/MS/MS to analyze the concentration of the compounds to be tested.
2.6 Liquid Phase Analysis • Liquid phase condition: Shimadzu LC-20AD pump • MS conditions: AB Sciex API 4000 Mass Spectrometer • Chromatographic column: phenomenex Gemiu 5 μm C18 50×4.6 mm • Mobile phase: A solution was aqueous 0.1% formic acid solution, B solution was acetonitrile • Flow rate: 0.8 mL/min • Elution time: 0 to 4.0 minutes, the eluent was as follows:
The main parameters of pharmacokinetics were calculated with WinNonlin 8.2, and the results of the mice pharmacokinetic experiments were shown in the following table: […]

The mark [2] stands for this setting: TR-FRET, PD-L1-His and PD-1-Fc, read-out: PD-1/PD-L1 binding IC50.
Setting [3] is: compound 10 μM, PD-L1 protein 2 μM, Tm minus DMSO vehicle control.

Here are results for twelve compounds from patent US20230105212A1, “BIPHENYL DERIVATIVE INHIBITOR, PREPARATION METHOD THEREFOR AND USE THEREOF” (SHANGHAI HANSOH BIOMEDICAL CO., LTD., priority 2020, published 2023).

Where two headings read alike, the source gives them in different places.

T2 sequence (Q9NZQ7 19-238 limits assumed): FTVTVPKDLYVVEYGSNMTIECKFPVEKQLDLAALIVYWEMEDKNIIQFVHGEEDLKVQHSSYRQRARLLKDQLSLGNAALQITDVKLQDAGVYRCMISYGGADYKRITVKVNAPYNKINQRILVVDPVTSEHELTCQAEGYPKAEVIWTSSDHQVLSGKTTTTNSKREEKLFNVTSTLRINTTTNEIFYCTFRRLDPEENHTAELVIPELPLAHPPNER
T1 sequence (Q9NZQ7 19-238): as the sequence (Q9NZQ7 19-238 limits assumed) above

Regarding `COc1nc(-c2cccc(-c3cccc(NC(=O)c4nc5c(n4C)CCN(C)C5)c3Cl)c2Cl)ccc1CNC(CO)CO` [Embodiment 174, N-(2,2′-Dichloro-3′-(5-(((1,3-dihydroxypropan-2-yl)amino)methyl)-6-methoxypyridin-2-yl)-[1,1′-biphenyl]-3-yl)-1,5-dimethyl-4,5,6,7-tetrahydro-1H-imidazo[4,5-c]pyridine-2-carboxamide], at human PD-1/PD-L1 binding (setting [2]), the IC50 stood at 3 nM. Also, the ΔTm (usually the change in melting temperature against a reference sample) at 10 µM at human PD-L1 protein (setting [3]) was 16.6 °C.
Take `COc1nc(-c2cccc(-c3cccc(NC(=O)c4nc5c(n4C)CCN(C)C5)c3Cl)c2Cl)ccc1CNC[C@H](C)O` [Embodiment 127, (S)—N-(2,2′-Dichloro-3′-(5-(((2-hydroxypropyl)amino)methyl)-6-methoxypyridin-2-yl)-[1,1′-biphenyl]-3-yl)-1,5-dimethyl-4,5,6,7-tetrahydro-1H-imidazo[4,5-c]pyridine-2-carboxamide]: the IC50 at human PD-1/PD-L1 binding (setting [2]) stood at 4.6 nM. Also, the ΔTm at 10 µM at human PD-L1 protein (setting [3]) was found to be 18.7 °C. For the same compound, in data set [1], the MRT inf turned out to be 69 h, the AUC(0-t) worked out at 743 ng·h/mL, the Cmax was found to be 37 ng/mL and the half-life was 47 h. Further, in data set [1], the Tmax (usually the time at which the peak concentration occurs) was 6 h.
On to `COc1nc(-c2cccc(-c3cccc(NC(=O)c4nc5c(n4C)CCN(C)C5)c3Cl)c2Cl)ccc1CN1CC2(C1)CN(S(C)(=O)=O)C2` [Embodiment 192], for which, on human PD-1/PD-L1 binding (setting [2]), the IC50 was determined as 9 nM. Moreover, at human PD-L1 protein (setting [3]), the shift in melting temperature (ΔTm) at 10 µM stood at 14 °C.
In the same order, the values of `COc1nc(-c2cccc(-c3cccc(NC(=O)c4nc5c(n4C)CCN(C)C5)c3Cl)c2Cl)ccc1CN1CC(O)(CO)C1` [Embodiment 173, N-(2,2′-Dichloro-3′-(5-((3-hydroxy-3-(hydroxymethyl)azetidin-1-yl)methyl)-6-methoxypyridin-2-yl)-[1,1-biphenyl]-3-yl)-1,5-dimethyl-4,5,6,7-tetrahydro-1H-imidazo[4,5-c]pyridine-2-carboxamide] are 3 nM and 13.5 °C.
Turning to `COc1nc(-c2cccc(-c3cccc(NC(=O)c4nc5c(n4C)CCN(C)C5)c3Cl)c2Cl)ccc1CN[C@H]1CCOC[C@@H]1O` (relative stereo) [Embodiment 175, N-(2,2′-Dichloro-3′-(5-((((3,4-trans)-3-hydroxytetrahydro-2H-pyran-4-yl)amino)methyl)-6-methoxypyridin-2-yl)-[1,1′-biphenyl]-3-yl)-1,5-dimethyl-4,5,6,7-tetrahydro-1H-imidazo[4,5-c]pyridine-2-carboxamide], the IC50 at human PD-1/PD-L1 binding (setting [2]) was 4.2 nM. The shift in melting temperature (ΔTm) at 10 µM at human PD-L1 protein (setting [3]) was determined as 18 °C. Besides, in data set [1], the AUC(0-t) was determined as 1630 ng·h/mL, the Cmax was found to be 132 ng/mL and the Tmax was 6 h.
For `CCC(=O)N1CC2(CN(Cc3ccc(-c4cccc(-c5cccc(NC(=O)c6nc7c(n6C)CCN(C)C7)c5Cl)c4Cl)nc3OC)C2)C1` [Embodiment 188, N-(2,2′-Dichloro-3′-(6-methoxy-5-((6-propionyl-2,6-diazaspiro[3.3]heptan-2-yl)methyl)pyridin-2-yl)-[1,1′-biphenyl]-3-yl)-1,5-dimethyl-4,5,6,7-tetrahydro-1H-imidazo[4,5-c]pyridine-2-carboxamide], on human PD-1/PD-L1 binding, the IC50 was 6.3 nM. Also, on human PD-L1 protein, the ΔTm at 10 µM was 16.5 °C.
For `COc1nc(-c2cccc(-c3cccc(NC(=O)c4nc5c(n4C)CCN(C)C5)c3Cl)c2Cl)ccc1CN1CC(C(=O)N(C)C)C1` [Embodiment 183, N-(2,2′-Dichloro-3′-(5-((3-(dimethylcarbamoyl)azetidin-1-yl)methyl)-6-methoxypyridin-2-yl)-[1,1′-biphenyl]-3-yl)-1,5-dimethyl-4,5,6,7-tetrahydro-1H-imidazo[4,5-c]pyridine-2-carboxamide], the IC50 on human PD-1/PD-L1 binding (setting [2]) was found to be 4.7 nM. Also, on human PD-L1 protein (setting [3]), the ΔTm at 10 µM was 21 °C. In data set [1], the MRT inf turned out to be 16.8 h, the AUC(0-t) worked out at 1190 ng·h/mL, the Cmax worked out at 75 ng/mL and the half-life is 10.9 h. The time of peak concentration (Tmax) in data set [1] was 6 h.
As to `CNC(=O)CNCc1cnc(C(=O)Nc2cccc(-c3cccc(NC(=O)c4nc5c(n4C)CCN(C)C5)c3Cl)c2C)cc1OC` [Embodiment 95, N-(2-Chloro-3′-(4-methoxy-5-(((2-(methylamino)-2-carbonylethyl)amino)methyl)picolinamido)-2′-methyl-[1,1′-biphenyl]-3-yl)-1,5-dimethyl-4,5,6,7-tetrahydro-1H-imidazo[4,5-c]pyridine-2-carboxamide], the IC50 at human PD-1/PD-L1 binding (setting [2]) stood at 2.4 nM. Also, the ΔTm at 10 µM at human PD-L1 protein (setting [3]) is 14.4 °C.
In the case of `COc1nc(-c2cccc(-c3cccc(NC(=O)c4nc5c(n4C)CCN(C)C5)c3Cl)c2Cl)ccc1CNC1COC1` [Embodiment 114, N-(2,2′-Dichloro-3′-(6-methoxy-5-((oxetan-3-ylamino)methyl)pyridin-2-yl)-[1,1′-biphenyl]-3-yl)-1,5-dimethyl-4,5,6,7-tetrahydro-1H-imidazo[4,5-c]pyridine-2-carboxamide], at human PD-1/PD-L1 binding (setting [2]), the IC50 came to 4.3 nM. In addition, the ΔTm at 10 µM at human PD-L1 protein (setting [3]) was 17.9 °C. Also, in data set [1], the MRT inf was determined as 11.3 h, the AUC(0-t) stood at 596 ng·h/mL, the Cmax worked out at 48 ng/mL and the half-life was 9 h. For the same compound, in data set [1], the Tmax is 2 h.
As to `COc1nc(-c2cccc(-c3cccc(NC(=O)c4nc5c(n4C)CCN(C)C5)c3Cl)c2Cl)ccc1CN1CC2(COC2)C1` [Embodiment 124, N-(3′-(5-((2-Oxa-6-azaspiro[3.3]heptan-6-yl)methyl)-6-methoxypyridin-2-yl)-2,2′-dichloro-[1,1′-biphenyl]-3-yl)-1,5-dimethyl-4,5,6,7-tetrahydro-1H-imidazo[4,5-c]pyridine-2-carboxamide], at human PD-1/PD-L1 binding (setting [2]), the IC50 is 3.8 nM. Moreover, the ΔTm at 10 µM on human PD-L1 protein (setting [3]) turned out to be 16.2 °C. In data set [1], the MRT inf was 25 h, the AUC(0-t) amounted to 523 ng·h/mL, the Cmax is 36 ng/mL and the half-life was 20 h. Moreover, in data set [1], the Tmax is 4 h.
Take `COc1nc(-c2cccc(-c3cccc(NC(=O)c4nc5c(n4C)CCN(C)C5)c3Cl)c2Cl)ncc1CN1CC(CNC(C)=O)C1` [Embodiment 225, N-(3′-(5-((3-(Acetylaminomethyl)azetidin-1-yl)methyl)-4-methoxypyrimidin-2-yl)-2,2′-dichloro-[1,1′-biphenyl]-3-yl)-1,5-dimethyl-4,5,6,7-tetrahydro-1H-imidazo[4,5-c]pyridine-2-carboxamide]: the IC50 on human PD-1/PD-L1 binding (setting [2]) was determined as 4.5 nM. Also, in data set [1], the MRT inf stood at 10.6 h, the AUC(0-t) was 1920 ng·h/mL, the half-life was 9.2 h and the time to peak (Tmax) came to 2 h.
Take `COc1nc(-c2cccc(-c3cccc(NC(=O)c4nc5c(n4C)CCN(C)C5)c3Cl)c2Cl)cnc1CN1CC(NC(C)=O)C1` [Embodiment 218, N-(3′-(5-((3-Acetylaminoazetidin-1-yl)methyl)-6-methoxypyrazin-2-yl)-2,2′-dichloro-[1,1′-biphenyl]-3-yl)-1,5-dimethyl-4,5,6,7-tetrahydro-1H-imidazo[4,5-c]pyridine-2-carboxamide]: the IC50 at human PD-1/PD-L1 binding (setting [2]) worked out at 3.7 nM. Also, the ΔTm at 10 µM on human PD-L1 protein (setting [3]) turned out to be 13.7 °C.
